Assay results reported in ChEMBL document CHEMBL4619722, “Alanine scan-guided synthesis and biological evaluation of analogues of culicinin D, a potent anticancer peptaibol” (Bioorg Med Chem Lett, 2020).
Square brackets hold non-standard residues; d marks the D form. Peptide text beside a SMILES is read from it. * marks the point of attachment. ξ: configuration not given here. Nva(5-pentanoyl) = CCCCC(=O)CCC[C@H](N)C(=O)O; NH((S)CH(Me)CH2NHC2H4OH) = C[C@@H](CNCCO)N*; Gly(octyl) = CCCCCCCC[C@H](N)C(=O)O; Ala(cPr) = N[C@@H](CC1CC1)C(=O)O; Cha = N[C@@H](CC1CCCCC1)C(=O)O; Chg = N[C@H](C(=O)O)C1CCCCC1; Ac6c = NC1(C(=O)O)CCCCC1; Ac4c = NC1(C(=O)O)CCC1; Aib = CC(C)(N)C(=O)O; Butyryl = CCCC(=O)*; ξP = O=C(O)C1CCCN1; βAla = NCCC(=O)O

How the values were obtained:
Type in all cases: functional, cell-based
SK-BR-3 = experiment: Antiproliferative activity against human SKBR3 cells
NCI-H460 = experiment: Antiproliferative activity against human NCI-H460 cells
MDA-MB-468 = experiment: Antiproliferative activity against human MDA-MB-468 cells
T47D = experiment: Antiproliferative activity against human T47D cells

SMILES	IC50 (SK-BR-3) [nM]	IC50 (NCI-H460) [nM]	IC50 (MDA-MB-468) [nM]	IC50 (T47D) [nM]
CCCCCCCC[C@H](NC(=O)C(C)(C)NC(=O)C(C)(C)NC(=O)CNC(=O)[C@@H]1CCCN1C(=O)CCC)C(=O)N[C@@H](CC(C)C)C(=O)NC(C)(C)C(=O)N[C@@H](CC(C)C)C(=O)NCCC(=O)N[C@@H](C)CNCCO (Butyryl-PG[Aib][Aib][Gly(octyl)]L[Aib]L[βAla]-{NH((S)CH(Me)CH2NHC2H4OH)})	310	133	76	87
CCCCCCCC[C@H](NC(=O)C(C)(C)NC(=O)C(C)(C)NC(=O)C1(NC(=O)[C@@H]2CCCN2C(=O)CCC)CCCCC1)C(=O)N[C@@H](CC(C)C)C(=O)NC(C)(C)C(=O)N[C@@H](CC(C)C)C(=O)NCCC(=O)N[C@@H](C)CNCCO (Butyryl-P[Ac6c][Aib][Aib][Gly(octyl)]L[Aib]L[βAla]-{NH((S)CH(Me)CH2NHC2H4OH)})	96	39	31	25
CCCCCCCC[C@H](NC(=O)C(C)(C)NC(=O)C(C)(C)NC(=O)[C@H](Cc1c[nH]cn1)NC(=O)[C@@H]1CCCN1C(=O)CCC)C(=O)N[C@@H](CC(C)C)C(=O)NC(C)(C)C(=O)N[C@@H](CC(C)C)C(=O)NCCC(=O)N[C@@H](C)CNCCO (Butyryl-PH[Aib][Aib][Gly(octyl)]L[Aib]L[βAla]-{NH((S)CH(Me)CH2NHC2H4OH)})	> 1000	456	136	151
CCCCCCCC[C@H](NC(=O)C(C)(C)NC(=O)C(C)(C)NC(=O)[C@H](CCCC(=O)CCCC)NC(=O)C1CCCN1C(=O)CCC)C(=O)N[C@@H](CC(C)C)C(=O)N[C@@H](C)C(=O)N[C@@H](CC(C)C)C(=O)NCCC(=O)N[C@@H](C)CNCCO (stereo partly drawn) (Butyryl-[ξP][Nva(5-pentanoyl)][Aib][Aib][Gly(octyl)]LAL[βAla]-{NH((S)CH(Me)CH2NHC2H4OH)})	> 1000	266	> 1000	> 1000
CCCCCCCC[C@H](NC(=O)C(C)(C)NC(=O)C(C)(C)NC(=O)C(C)(C)NC(=O)[C@@H]1CCCN1C(=O)CCC)C(=O)N[C@@H](CC(C)C)C(=O)NC(C)(C)C(=O)N[C@@H](CC(C)C)C(=O)NCCC(=O)N[C@@H](C)CNCCO (Butyryl-P[Aib][Aib][Aib][Gly(octyl)]L[Aib]L[βAla]-{NH((S)CH(Me)CH2NHC2H4OH)})	150	57	48	29
CCCCCCCC[C@H](NC(=O)C(C)(C)NC(=O)C(C)(C)NC(=O)[C@H](CC1CCCCC1)NC(=O)[C@@H]1CCCN1C(=O)CCC)C(=O)N[C@@H](CC(C)C)C(=O)NC(C)(C)C(=O)N[C@@H](CC(C)C)C(=O)NCCC(=O)N[C@@H](C)CNCCO (Butyryl-P[Cha][Aib][Aib][Gly(octyl)]L[Aib]L[βAla]-{NH((S)CH(Me)CH2NHC2H4OH)})	12	2	3	4
CCCCCCCC[C@H](NC(=O)C(C)(C)NC(=O)[C@H](C)NC(=O)[C@H](CCCC(=O)CCCC)NC(=O)C1CCCN1C(=O)CCC)C(=O)N[C@@H](CC(C)C)C(=O)NC(C)(C)C(=O)N[C@@H](CC(C)C)C(=O)NCCC(=O)N[C@@H](C)CNCCO (stereo partly drawn) (Butyryl-[ξP][Nva(5-pentanoyl)]A[Aib][Gly(octyl)]L[Aib]L[βAla]-{NH((S)CH(Me)CH2NHC2H4OH)})	75	44	42	31
CCCCCCCC[C@H](NC(=O)C(C)(C)NC(=O)C(C)(C)NC(=O)[C@H](CC1CC1)NC(=O)[C@@H]1CCCN1C(=O)CCC)C(=O)N[C@@H](CC(C)C)C(=O)NC(C)(C)C(=O)N[C@@H](CC(C)C)C(=O)NCCC(=O)N[C@@H](C)CNCCO (Butyryl-P[Ala(cPr)][Aib][Aib][Gly(octyl)]L[Aib]L[βAla]-{NH((S)CH(Me)CH2NHC2H4OH)})	29	8	10	10
CCCCCCCC[C@H](NC(=O)C(C)(C)NC(=O)C(C)(C)NC(=O)C1(NC(=O)[C@@H]2CCCN2C(=O)CCC)CCC1)C(=O)N[C@@H](CC(C)C)C(=O)NC(C)(C)C(=O)N[C@@H](CC(C)C)C(=O)NCCC(=O)N[C@@H](C)CNCCO (Butyryl-P[Ac4c][Aib][Aib][Gly(octyl)]L[Aib]L[βAla]-{NH((S)CH(Me)CH2NHC2H4OH)})	68	19	16	17
CCCCCCCC[C@H](NC(=O)C(C)(C)NC(=O)C(C)(C)NC(=O)[C@H](CCC(=O)O)NC(=O)[C@@H]1CCCN1C(=O)CCC)C(=O)N[C@@H](CC(C)C)C(=O)NC(C)(C)C(=O)N[C@@H](CC(C)C)C(=O)NCCC(=O)N[C@@H](C)CNCCO (Butyryl-PE[Aib][Aib][Gly(octyl)]L[Aib]L[βAla]-{NH((S)CH(Me)CH2NHC2H4OH)})	> 10000	> 10000	> 10000	> 10000
CCCCCCCC[C@H](NC(=O)C(C)(C)NC(=O)C(C)(C)NC(=O)[C@@H](NC(=O)[C@@H]1CCCN1C(=O)CCC)C1CCCCC1)C(=O)N[C@@H](CC(C)C)C(=O)NC(C)(C)C(=O)N[C@@H](CC(C)C)C(=O)NCCC(=O)N[C@@H](C)CNCCO (Butyryl-P[Chg][Aib][Aib][Gly(octyl)]L[Aib]L[βAla]-{NH((S)CH(Me)CH2NHC2H4OH)})	21	6	10	8
